The record followed here is US8927500B2, “Peptidomimetic macrocycles” (Aileron Therapeutics, Inc., priority 2012, dated 2015).

Where a SMILES comes first, the peptide text is derived from it. Bridges are numbered along the chain shown (N, C = ends). [ ]: non-standard residue; d: D form. Trp(6-Cl) = N[C@@H](Cc1c[nH]c2cc(Cl)ccc12)C(=O)O; dPhe(4-CF3) = N[C@H](Cc1ccc(C(F)(F)F)cc1)C(=O)O; R8 = C=CCCCCCC[C@@](C)(N)C(=O)O; S8 = C=CCCCCCC[C@](C)(N)C(=O)O; Cba = N[C@@H](CC1CCC1)C(=O)O; R5 = C=CCCC[C@@](C)(N)C(=O)O; hLeu = CC(C)CC[C@H](N)C(=O)O; S5 = C=CCCC[C@](C)(N)C(=O)O; Nle = CCCC[C@H](N)C(=O)O; Ac3c = NC1(C(=O)O)CC1; Aib = CC(C)(N)C(=O)O Some results are limits rather than exact numbers.

One test deals with T1, MDMX (Homo sapiens, UniProt O15151).
T1 sequence (O15151 1-125): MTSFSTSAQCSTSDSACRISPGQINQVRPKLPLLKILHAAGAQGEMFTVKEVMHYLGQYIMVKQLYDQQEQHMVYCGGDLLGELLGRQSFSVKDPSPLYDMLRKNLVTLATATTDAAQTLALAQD
In words: Competitive fluorescence polarization assay for MDMX. It is filed as binding. The following applies: competitive FP assay; for IC50: read-out: IC50 (MDMX); for Ki: read-out: Ki (MDMX). (Polarisation of emitted light reports the rotation of a fluorescent probe.)

The target of a further test is MDM2 (Homo sapiens, UniProt Q00987). In words: Competitive fluorescence polarization assay for MDM2. Format: binding. The following applies: competitive FP assay, MDM2; for IC50: read-out: IC50 (MDM2); for Ki: read-out: Ki (MDM2).
Sequence of MDM2 (Q00987 1-125): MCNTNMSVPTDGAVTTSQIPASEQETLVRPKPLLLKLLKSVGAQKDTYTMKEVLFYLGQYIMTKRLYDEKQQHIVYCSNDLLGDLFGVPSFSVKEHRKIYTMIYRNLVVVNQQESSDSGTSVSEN

By IC50 is commonly meant the point on the concentration scale where inhibition reaches its midpoint. As a reminder, the Ki is a measure of affinity in units of concentration, obtained from inhibition or displacement. `CC(=O)N[C@@H](Cc1ccccc1)C(=O)N[C@]1(C)CCCCCCC=CCCC[C@@](C)(C(=O)N[C@@H](Cc2c[nH]cn2)C(=O)NC(C)(C)C(=O)N[C@@H](C)C(=O)N[C@H](C)C(N)=O)NC(=O)[C@H](CC(C)C)NC(=O)[C@H](CCC(N)=O)NC(=O)[C@H](Cc2ccc(O)cc2)NC(=O)[C@H](Cc2c[nH]c3ccccc23)NC(=O)[C@H](Cc2ccc(O)cc2)NC(=O)[C@H](C)NC1=O` [compound 42] (Ac-F[R8]AYWYQL[S5]H[Aib]A[dA]-NH2; staple 2-9): on MDMX, the IC50 was in the range of 100 to 1000 nM and the Ki lay within 100 to 1000 nM. Also, on MDM2, the IC50 fell in the range of 100 to 1000 nM and the Ki was in the range of 10 to 100 nM.

As for `CC[C@H](C)[C@H](NC(C)=O)C(=O)N[C@H](C(=O)N[C@@H](Cc1ccccc1)C(=O)N[C@]1(C)CCCCCCC=CCCC[C@@](C)(C(=O)N[C@@H](C)C(=O)N[C@@H](CCC(=O)O)C(=O)N[C@@H](Cc2ccccc2)C(=O)N[C@@H](C)C(N)=O)NC(=O)[C@H](CC(C)C)NC(=O)[C@H](CCC(N)=O)NC(=O)[C@H](C)NC(=O)[C@H](Cc2c[nH]c3ccccc23)NC(=O)[C@H](Cc2c[nH]cn2)NC(=O)[C@H](Cc2ccccc2)NC1=O)[C@@H](C)O` [compound 186] (Ac-ITF[R8]FHWAQL[S5]AEFA-NH2; staple 4-11), at MDMX, the IC50 lay within 100 to 1000 nM and the Ki lay within 10 to 100 nM. Also, on MDM2, the IC50 is 10 to 100 nM and the Ki is under 10 nM.

`CC(=O)N[C@@H](Cc1ccccc1)C(=O)N[C@]1(C)CCCCCCC=CCCC[C@@](C)(C(=O)N[C@@H](CCCNC(=N)N)C(=O)N[C@@H](CCCNC(=N)N)C(=O)N[C@@H](CC(=O)O)C(=O)N[C@@H](C)C(N)=O)NC(=O)[C@H](CC(C)C)NC(=O)[C@H](CCC(N)=O)NC(=O)[C@H](Cc2c[nH]cn2)NC(=O)[C@H](Cc2c[nH]c3ccccc23)NC(=O)[C@H](Cc2c[nH]cn2)NC(=O)[C@H](Cc2c[nH]cn2)NC1=O` [compound 54] (Ac-F[R8]HHWHQL[S5]RRDA-NH2; staple 2-9): at MDMX, the IC50 fell in the range of 100 to 1000 nM and the Ki fell in the range of 10 to 100 nM. Besides, on MDM2, the IC50 was 100 to 1000 nM and the Ki lay within 10 to 100 nM.

`CC(=O)N[C@@H](C(=O)N[C@H](C)C(=O)N[C@H](Cc1c[nH]c2ccccc12)C(=O)N[C@H](Cc1ccc(O)cc1)C(=O)N[C@H](C)C(=O)N[C@@]1(C)CCCCCCC=CCCC[C@](C)(C(=O)N[C@H](C)C(N)=O)NC(=O)[C@@H](CCCNC(=N)N)NC(=O)[C@@H](CC(C)C)NC(=O)[C@@H](CC(C)C)NC(=O)[C@@H](CCCCN)NC(=O)[C@@H](CCC(=O)O)NC(=O)[C@@H](Cc2ccc(C(F)(F)F)cc2)NC1=O)[C@H](C)O` [compound 758] (Ac-[dT][dA][dW][dY][dA][S8][dPhe(4-CF3)][dE][dK][dL][dL][dR][R5][dA]-NH2; staple 6-13): the IC50 on MDMX is over 1000 nM; on MDM2 it was 10 to 100 nM.

For `CC(=O)N[C@@H](CC(C)C)C(=O)N[C@H](C(=O)N[C@@H](Cc1ccccc1)C(=O)N[C@]1(C)CCCCCCC=CCCC[C@@](C)(C(=O)N[C@@H](C)C(=O)N[C@@H](C)C(=O)N[C@@H](C)C(=O)N[C@@H](C)C(=O)N[C@@H](C)C(=O)N[C@H](C)C(N)=O)NC(=O)[C@H](CC(C)C)NC(=O)[C@H](C)NC(=O)[C@H](C)NC(=O)[C@H](Cc2c[nH]c3ccccc23)NC(=O)[C@H](Cc2ccc(O)cc2)NC(=O)[C@H](C)NC1=O)[C@@H](C)O` (single isomer, unassigned) [compound 708], the Ki on MDMX and at MDM2 was 10 to 100 nM in each case.

Consider `CC[C@H](C)[C@H](NC(=O)[C@H](C)NC(=O)[C@H](C)NC(=O)[C@]1(C)CCCC=CCCCCCC[C@@](C)(NC(=O)[C@H](Cc2ccccc2)NC(=O)[C@@H](NC(=O)[C@H](CC(C)C)NC(C)=O)[C@@H](C)O)C(=O)N[C@@H](C)C(=O)N[C@@H](Cc2ccc(O)cc2)C(=O)N[C@@H](Cc2c[nH]c3cc(Cl)ccc23)C(=O)N[C@@H](C)C(=O)N[C@@H](CCC(N)=O)C(=O)N[C@@H](CC2CCC2)C(=O)N1)C(=O)N[C@H](C)C(N)=O` [compound 266] (Ac-LTF[R8]AY[Trp(6-Cl)]AQ[Cba][S5]AAI[dA]-NH2; staple 4-11), for which, on MDMX, the IC50 fell in the range of 100 to 1000 nM and the Ki is 10 to 100 nM. On MDM2, the IC50 fell in the range of 10 to 100 nM and the Ki was under 10 nM.

With `CC(=O)N[C@@H](Cc1ccccc1)C(=O)N[C@]1(C)CCCCCCC=CCCC[C@@](C)(C(=O)N[C@@H](C)C(=O)N[C@@H](C)C(=O)N[C@@H](CCC(C)C)C(N)=O)NC(=O)[C@H](CC(C)C)NC(=O)C2(CC2)NC(=O)[C@H](CCC(=O)O)NC(=O)[C@H](Cc2c[nH]c3ccccc23)NC(=O)[C@H](Cc2ccc(O)cc2)NC(=O)[C@H](C)NC1=O` [compound 17] (Ac-F[R8]AYWE[Ac3c]L[S5]AA[hLeu]-NH2; staple 2-9), the IC50 on MDMX and on MDM2 was 10 to 100 nM throughout. The Ki was 10 to 100 nM on MDMX and under 10 nM at MDM2.

Take `CC(=O)N[C@@H](C)C(=O)N[C@@H](CC(C)C)C(=O)N[C@H](C(=O)N[C@@H](Cc1ccccc1)C(=O)N[C@]1(C)CCCCCCC=CCCC[C@@](C)(C(=O)N[C@@H](CO)C(=O)N[C@@H](C)C(=O)N[C@@H](C)C(=O)N[C@@H](C)C(N)=O)NC(=O)[C@H](CC2CCC2)NC(=O)[C@H](CCC(N)=O)NC(=O)[C@H](C)NC(=O)[C@H](Cc2c[nH]c3ccccc23)NC(=O)[C@H](Cc2ccc(O)cc2)NC(=O)[C@H](CCC(=O)O)NC1=O)[C@@H](C)O` [compound 329]: the IC50 on MDMX and at MDM2 was 10 to 100 nM in each case. Moreover, the results for the Ki at MDMX and at MDM2 were 10 to 100 nM and under 10 nM, respectively.

In the case of `CCCC[C@H](NC(=O)[C@H](C)NC(=O)[C@H](C)NC(=O)[C@]1(C)CCCC=CCCCCCC[C@@](C)(NC(=O)[C@H](Cc2ccccc2)NC(=O)[C@@H](NC(=O)[C@H](CC(C)C)NC(C)=O)[C@@H](C)O)C(=O)N[C@@H](C)C(=O)N[C@@H](Cc2ccc(O)cc2)C(=O)N[C@@H](Cc2c[nH]c3ccccc23)C(=O)N[C@@H](C)C(=O)N[C@@H](CCC(N)=O)C(=O)N[C@@H](CC(C)C)C(=O)N1)C(=O)N[C@@H](C)C(=O)N[C@@H](C)C(N)=O` [compound 320], at MDMX, the IC50 fell in the range of 100 to 1000 nM and the Ki was 100 to 1000 nM. On MDM2, the IC50 was 10 to 100 nM and the Ki is 10 to 100 nM.

As to `CC[C@H](C)[C@H](NC(C)=O)C(=O)N[C@H](C(=O)N[C@@H](Cc1ccccc1)C(=O)N[C@]1(C)CCCCCCC=CCCC[C@@](C)(C(=O)N[C@@H](C)C(=O)N[C@@H](Cc2c[nH]cn2)C(=O)N[C@@H](Cc2ccccc2)C(=O)N[C@@H](C)C(N)=O)NC(=O)[C@H](CC(C)C)NC(=O)[C@H](CCC(N)=O)NC(=O)[C@H](C)NC(=O)[C@H](Cc2c[nH]c3ccccc23)NC(=O)[C@H](Cc2c[nH]cn2)NC(=O)[C@H](CCC(=O)O)NC1=O)[C@@H](C)O` (single isomer, unassigned) [compound 189], at MDMX, the IC50 lay within 100 to 1000 nM and the Ki was in the range of 10 to 100 nM. Also, on MDM2, the IC50 was in the range of 10 to 100 nM and the Ki is under 10 nM.

Consider `CC(=O)N[C@@H](CC(C)C)C(=O)N[C@H](C(=O)N[C@@H](Cc1ccccc1)C(=O)N[C@]1(C)CCCCCCC=CCCC[C@@](C)(C(=O)N[C@@H](C)C(=O)N[C@@H](C)C(=O)N[C@H](C)C(N)=O)NC(=O)[C@H](CC(C)C)NC(=O)[C@H](CCC(N)=O)NC(=O)[C@H](C)NC(=O)[C@H](Cc2c[nH]c3ccccc23)NC(=O)[C@H](Cc2ccc(O)cc2)NC(=O)[C@H](CCC(=O)O)NC1=O)[C@@H](C)O` [compound 587] (Ac-LTF[R8]EYWAQL[S5]AA[dA]-NH2; staple 4-11), for which the Ki at MDMX and on MDM2 was under 10 nM in each case.

Consider `CCCC[C@H](NC(=O)[C@H](Cc1c[nH]c2ccccc12)NC(=O)[C@H](C)NC(=O)[C@]1(C)CCCC=CCCCCCC[C@@](C)(NC(=O)[C@H](Cc2ccccc2)NC(=O)[C@@H](NC(=O)[C@H](CCC(=O)O)NC(C)=O)[C@@H](C)O)C(=O)N[C@@H](CCC(=O)O)C(=O)N[C@@H](Cc2ccc(O)cc2)C(=O)N[C@@H](Cc2c[nH]c3ccccc23)C(=O)N[C@@H](C)C(=O)N[C@@H](CCC(N)=O)C(=O)N[C@@H](CC(C)C)C(=O)N1)C(=O)N[C@H](C)C(N)=O` [compound 278] (Ac-ETF[R8]EYWAQL[S5]AW[Nle][dA]-NH2; staple 4-11), for which the IC50 at MDMX and at MDM2 was 10 to 100 nM throughout. Further, the Ki on MDMX and on MDM2 was under 10 nM each time.

Consider `CC(=O)N[C@@H](CC(C)C)C(=O)N[C@H](C(=O)N[C@@H](Cc1ccccc1)C(=O)N[C@]1(C)CCCCCCC=CCCC[C@@](C)(C(=O)N[C@@H](C)C(=O)N[C@@H](C)C(=O)N[C@@H](C)C(=O)N[C@@H](C)C(=O)NC(C)(C)C(=O)N[C@H](C)C(N)=O)NC(=O)[C@H](CC(C)C)NC(=O)[C@H](CCC(N)=O)NC(=O)[C@H](C)NC(=O)[C@H](Cc2c[nH]c3ccccc23)NC(=O)[C@H](Cc2ccc(O)cc2)NC(=O)[C@H](CCC(=O)O)NC1=O)[C@@H](C)O` (single isomer, unassigned) [compound 566], for which the Ki at MDM2 is under 10 nM.

Regarding `CCCC[C@H](NC(=O)C(C)(C)NC(=O)[C@H](C)NC(=O)[C@]1(C)CCCC=CCCCCCC[C@@](C)(NC(=O)[C@H](Cc2ccccc2)NC(=O)[C@@H](NC(=O)[C@H](CC(C)C)NC(C)=O)[C@@H](C)O)C(=O)N[C@@H](C)C(=O)N[C@@H](Cc2ccc(O)cc2)C(=O)N[C@@H](Cc2c[nH]c3ccccc23)C(=O)N[C@@H](C)C(=O)N[C@@H](CCC(N)=O)C(=O)N[C@@H](CC(C)C)C(=O)N1)C(=O)N[C@@H](C)C(N)=O` (single isomer, unassigned) [compound 392], on MDM2, the IC50 was 10 to 100 nM and the Ki was under 10 nM.

Take `CC(=O)N[C@@H](CC(C)C)C(=O)N[C@H](C(=O)N[C@@H](Cc1ccccc1)C(=O)N[C@]1(C)CCCCCCC=CCCC[C@@](C)(C(=O)N[C@@H](C)C(=O)N[C@@H](C)C(=O)N[C@@H](C)C(=O)N[C@@H](C)C(=O)NC(C)(C)C(=O)N[C@H](C)C(N)=O)NC(=O)[C@H](CC(C)C)NC(=O)[C@H](CCC(N)=O)NC(=O)[C@H](C)NC(=O)[C@H](Cc2c[nH]c3ccccc23)NC(=O)[C@H](Cc2ccc(O)cc2)NC(=O)[C@H](CCC(=O)O)NC1=O)[C@@H](C)O` (single isomer, unassigned) [compound 565]: at MDM2, the Ki fell in the range of 10 to 100 nM.
